# pIC50: −log10 of the molar value. Where two headings read alike, the source gives them in different places.
# Key:
# Assay type in all cases: cell-based
# MCF-7 = test: CellTiter-Glo cell proliferation inhibition, MCF-7 (Effect Example 2); conditions: Homo sapiens, MCF7, 144 h; MCF-7 (CTG), 6 days, starting concentration 10 μM; read-out: IH % max (maximum inhibition percentage)
# Text: (§1) 1. Cell line • (1) Breast cancer cell lines and their culture media: • MCF-7 (ATCC; Cat. No.: HTB-22), a Luminal A breast cancer cell; • TamR-MCF-7 (ATCC; Cat. No.: CRL-3435), a breast cancer cell; • MCF-7 ER^D538G: a Luminal A breast cancer cell obtained by constructing MCF-7 (ATCC; Cat. No.: HTB-22) using CRISPR-Cas9 gene editing technology; • MCF-7 ER^Y537S: a Luminal A breast cancer cell obtained by constructing MCF-7 (ATCC; Cat. No.: HTB-22) using CRISPR-Cas9 gene editing technology; • MDA-MB-231: (manufacturer: Nanjing CoBioer Biosciences Co., Ltd.), a triple-negative breast cancer cell; • MDA-MB-468: (manufacturer: Nanjing CoBioer Biosciences Co., Ltd.), a triple-negative breast cancer cell.
# (§2) Herein, the culture medium of MCF-7, TamR-MCF-7, MCF-7 ER^D538G, and MCF-7 ER^Y537S was EMEM; • the culture medium of MDA-MB-231 and MDA-MB-468 was DMEM.
# (§3) 2. Reagents • Culture medium EMEM (Gibco, 1964507) • Culture medium DMEM (Gibco, 12430-054) • Fetal bovine serum (Gibco, 10091148) • Penicillin-streptomycin double antibody (Gibco, S110JV) • DPBS (Gibco, 14190-144) • CellTiter-Glo® assay kit (Promega, G7573) • Trypsin (0.25%) (Gibco, 25200-056) • DMSO (Sigma, D2650)
# (§4) 3. Instruments • Biosafety cabinet (AIRTECH, BSC-1300A II) • Automated cell counter (Life Technologies, countess II) • Multifunctional microplate reader (Biotek, H1FM) • Orbital shaker (Hangzhou Allsheng Instruments Co., Ltd., OS-100) • XLFIT 5.3 (Inforstack Shanghai Co., Ltd.)
# (§5) For this test method, the following experiments were performed in a biosafety cabinet, with the specific steps as follows: • (1) Cells were inoculated in a 96-well plate. One day later, the previous culture medium was poured off, 5 mL of DPBS was added to wash the cells, and then DPBS was pipetted and discarded. An appropriate amount of trypsin was then added. The plate was digested in a 37° C., 5% CO2 cell incubator for about 2 to 5 minutes and then taken out. Anew corresponding culture medium was added, and pipetted up and down to resuspend the cells evenly. The cells were then counted using an automated cell counter. • (2) Each cell was inoculated in columns 1 to 11 of a 96-well plate (Corning, Cat. No.: 3610) at a density of 1,000 or 2,000 cells per well in 100 μL of culture medium, and 100 μL of the corresponding culture medium without cells was added to the wells in column 12. The plate was then placed in a 37° C., 5% CO2 incubator for 24 hours. • (3) The compound of the present disclosure and the control drug fulvestrant (Selleck; Cat. No.: S1191) were then 4-fold serially diluted to 10 dose points starting at 10 μM. 10 μL of the serially diluted compound was pipetted and added to 100 μL of cells in columns 1 to 10, and 10 μL of the corresponding culture medium containing 0.33 v % DMSO was added to both columns 11 and 12. The plate was incubated in a 37° C., 5% CO2 incubator for 6 days or 72 hours (Note: column 11 was used as a MAX well with cells but without compound; column 12 was used as a MIN well without cells […]). • (4) The cell viability detection reagent in the CellTiter-Glo® assay kit was then added to the 96-well plate at 50 μL per well according to the instructions, and shaken on an orbital shaker in the dark for 5 to 10 minutes. The cell viability was then measured using a multifunctional microplate reader. Finally, the inhibition of cell proliferation by the compound of the present disclosure was plotted by XLFIT software, and the IC50 value (half inhibitory concentration) and the IH % max (maximum inhibition percentage) of the compound of the present disclosure were calculated.
# TamR-MCF-7 = test: CellTiter-Glo cell proliferation inhibition, TamR-MCF-7; conditions: 144 h; TamR-MCF-7 (CTG), 6 days, starting concentration 10 μM; read-out: IH % max (maximum inhibition percentage)
# Text: as §1, §2, §3, §4, §5
# MCF-7 ER^D538G = test: CellTiter-Glo cell proliferation inhibition, MCF-7 ER^D538G; conditions: Homo sapiens, MCF7, 144 h, MCF-7 ER^D538G (CTG), 6 days, starting concentration 10 μM; for inhibition at up to 10 µM: read-out: IH % max (maximum inhibition percentage)
# Text: as §1, §2, §3, §4, §5
# MCF-7 ER^Y537S = test: CellTiter-Glo cell proliferation inhibition, MCF-7 ER^Y537S; conditions: Homo sapiens, MCF7, 144 h; MCF-7 ER^Y537S (CTG), 6 days, starting concentration 10 μM; read-out: IH % max (maximum inhibition percentage)
# Text: as §1, §2, §3, §4, §5
# MDA-MB-468 = test: CellTiter-Glo cell proliferation inhibition, MDA-MB-468; conditions: Homo sapiens, MDA-MB-468 (CTG), starting concentration 10 μM; for inhibition at up to 10 µM: read-out: IH % max (maximum inhibition percentage)
# Text: as §1, §2, §3, §4, §5
# (§6) Compounds D64 to D69 were tested for MDA-MB-231 (CTG) and MDA-MB-468 (CTG) with an incubation time of 72 hours in the incubator.
# MDA-MB-231 = test: CellTiter-Glo cell proliferation inhibition, MDA-MB-231; conditions: Homo sapiens, MDA-MB-231 (CTG), starting concentration 10 μM; for inhibition at up to 10 µM: read-out: IH % max (maximum inhibition percentage)
# Text: as §1, §2, §3, §4, §5, §6
# [1] = incubation time 72 hours (D64 to D69)
pIC50 (MCF-7 ER^D538G),pIC50 (MDA-MB-231; [1]),pIC50 (MDA-MB-468; [1]),SMILES,inhibition at up to 10 µM (MCF-7) [%],inhibition at up to 10 µM (TamR-MCF-7) [%],inhibition at up to 10 µM (MCF-7 ER^D538G) [%],inhibition at up to 10 µM (MCF-7 ER^Y537S) [%],"inhibition at up to 10 µM (MDA-MB-468; 144 h, 6 days) [%]","inhibition at up to 10 µM (MDA-MB-231; 144 h, 6 days) [%]",inhibition at up to 10 µM (MDA-MB-231; [1]) [%],inhibition at up to 10 µM (MDA-MB-468; [1]) [%]
–,–,–,"CCN(CCOc1ccc(Oc2c(-c3ccc(S(C)(=O)=O)cc3)ccc3cc(O)ccc23)cc1)CC(=O)N1CCN(c2ccc3c(c2)CN(C2CCC(=O)NC2=O)C3=O)CC1 (stereo not shown) [Compound D7, 3-(5-(4-(N-ethyl-N-(2-(4-((6-hydroxy-2-(4-(methylsulfonyl)phenyl)naphthalen-1-yl)oxy)phenoxy)ethyl)glycyl)piperazin-1-yl)-1-oxoisoindolin-2-yl)piperidine-2,6-dione]",49,47,40,60,63,–,–,–
6.12,–,–,"CS(=O)(=O)c1ccc(-c2ccc3cc(O)ccc3c2Oc2ccc(N3CCN(CC(=O)N4CCN(c5ccc6c(c5)CN(C5CCC(=O)NC5=O)C6=O)CC4)CC3)cc2)cc1 (stereo not shown) [Compound D12, 3-(5-(4-(2-(4-(4-((6-hydroxy-2-(4-(methylsulfonyl)phenyl)naphthalen-1-yl)oxy)phenyl)piperazin-1-yl)acetyl)piperazin-1-yl)-1-oxoisoindolin-2-yl)piperidine-2,6-dione]",45,–,68,–,–,37,–,–
–,–,–,"CCN(CCOCCOCCNc1cccc2c1CN(C1CCC(=O)NC1=O)C2=O)CCOc1ccc(Oc2c(-c3ccc(S(C)(=O)=O)cc3)ccc3cc(O)ccc23)cc1 (stereo not shown) [Compound D26, 3-(4-((2-(2-(2-(ethyl(2-(4-((6-hydroxy-2-(4-(methylsulfonyl)phenyl)naphthalen-1-yl)oxy)phenoxy)ethyl)amino)ethoxy)ethoxy)ethyl)amino)-1-oxoisoindolin-2-yl)piperidine-2,6-dione]",55,35,75,43,37,–,–,–
6.80,–,–,"CCN(CCOCCOCCOCCNc1cccc2c1C(=O)N(C1CCC(=O)NC1=O)C2=O)CCOc1ccc(Oc2c(-c3ccc(S(C)(=O)=O)cc3)ccc3cc(O)ccc23)cc1 (stereo not shown) [Compound D39, 2-(2,6-dioxopiperidin-3-yl)-4-((3-ethyl-1-(4-((6-hydroxy-2-(4-(methylsulfonyl)phenyl)naphthalen-1-yl)oxy)phenoxy)-6,9,12-trioxa-3-azatetradecan-14-yl)amino)isoindoline-1,3-dione]",35,32,73,48,51,–,–,–
–,–,–,CCN(CCOCCOCCN1CCN(c2cccc3c2CN(C2CCC(=O)NC2=O)C3=O)CC1)CCOc1ccc(Oc2c(-c3ccc(S(C)(=O)=O)cc3)ccc3cc(O)ccc23)cc1 (stereo not shown) [Compound D40],34,31,72,61,71,–,–,–
–,8.01,7.71,"CNC(=O)c1ccc(-c2ccc3cc(O)ccc3c2Oc2ccc(OCCN3CCN(c4ccc5c(c4)CN(C4CCC(=O)NC4=O)C5=O)CC3)cc2)cc1 (stereo not shown) [Compound D64, 4-(1-(4-(2-(4-(2-(2,6-dioxopiperidin-3-yl)-1-oxoisoindolin-5-yl)piperazin-1-yl)ethoxy)phenoxy)-6-hydroxynaphthalen-2-yl)-N-methylbenzamide]",–,–,–,–,–,–,79.8,87
–,8.44,7.54,"O=C1CCC(N2Cc3cc(N4CCN(CCOc5ccc(Oc6c(-c7ccc(C(=O)N8CCCC8)cc7)ccc7cc(O)ccc67)cc5)CC4)ccc3C2=O)C(=O)N1 (stereo not shown) [Compound D65, 3-(5-(4-(2-(4-((6-hydroxy-2-(4-(pyrrolidine-1-carbonyl)phenyl)naphthalen-1-yl)oxy)phenoxy)ethyl)piperazin-1-yl)-1-oxoisoindolin-2-yl)piperidine-2,6-dione]",–,–,–,–,–,–,83.6,83.6
–,8.85,8.66,"CS(=O)(=O)c1ccc(-c2ccc3ccccc3c2Oc2ccc(OC(=O)N3CCN(c4ccc5c(c4)CN(C4CCC(=O)NC4=O)C5=O)CC3)cc2)cc1 (stereo not shown) [Compound D66, 4-((2-(4-(methylsulfonyl)phenyl)naphthalen-1-yl)oxy)phenyl 4-(2-(2,6-dioxopiperidin-3-yl)-1-oxoisoindolin-5-yl)piperazine-1-carboxylate]",–,–,–,–,–,–,85.4,90.6
–,8.43,8.36,"CN(C)C(=O)c1ccc(-c2ccc3ccccc3c2Oc2ccc(OC(=O)N3CCN(c4ccc5c(c4)CN(C4CCC(=O)NC4=O)C5=O)CC3)cc2)cc1 (stereo not shown) [Compound D67, 4-((2-(4-(dimethylcarbamoyl)phenyl)naphthalen-1-yl)oxy)phenyl 4-(2-(2,6-dioxopiperidin-3-yl)-1-oxoisoindolin-5-yl)piperazine-1-carboxylate]",–,–,–,–,–,–,79.2,83.6

SMILES,pIC50 (MCF-7 ER^D538G),pIC50 (MDA-MB-231; [1]),pIC50 (MDA-MB-468; [1]),inhibition at up to 10 µM (MCF-7) [%],inhibition at up to 10 µM (TamR-MCF-7) [%],inhibition at up to 10 µM (MCF-7 ER^D538G) [%],inhibition at up to 10 µM (MCF-7 ER^Y537S) [%],"inhibition at up to 10 µM (MDA-MB-468; 144 h, 6 days) [%]","inhibition at up to 10 µM (MDA-MB-231; 144 h, 6 days) [%]",inhibition at up to 10 µM (MDA-MB-231; [1]) [%],inhibition at up to 10 µM (MDA-MB-468; [1]) [%]
"CN(C)C(=O)c1ccc(-c2ccc3ccccc3c2Oc2ccc(OCCN3CCN(c4ccc5c(c4)CN(C4CCC(=O)NC4=O)C5=O)CC3)cc2)cc1 (stereo not shown) [Compound D68, 4-(1-(4-(2-(4-(2-(2,6-dioxopiperidin-3-yl)-1-oxoisoindolin-5-yl)piperazin-1-yl)ethoxy)phenoxy)naphthalen-2-yl)-N,N-dimethylbenzamide]",–,7.35,7.45,–,–,–,–,–,–,71.5,59.3
"CNC(=O)c1ccc(-c2ccc3ccccc3c2Oc2ccc(OC(=O)N3CCN(c4ccc5c(c4)CN(C4CCC(=O)NC4=O)C5=O)CC3)cc2)cc1 (stereo not shown) [Compound D69, 4-((2-(4-(methylcarbamoyl)phenyl)naphthalen-1-yl)oxy)phenyl 4-(2-(2,6-dioxopiperidin-3-yl)-1-oxoisoindolin-5-yl)piperazine-1-carboxylate]",–,8.66,8.57,–,–,–,–,–,–,91.7,92.8

# Source: US20240131168A1, “NAPHTHALENE RING-CONTAINING COMPOUND, PHARMACEUTICAL COMPOSITION CONTAINING SAME, AND USE THEREOF” (JIANGSU YAHONG MEDITECH CO., LTD., priority 2021, published 2024)
